Here are results for 13 molecules from patent publication US11866450B2, “Modulators of Cystic Fibrosis Transmembrane Conductance regulator, pharmaceutical compositions, methods of treatment, and process for making the modulators” (priority 2018, dated 2024).

The conditions of data set [1]: snar bond, DMSO.
Data set [2] addresses CFTR-mediated chloride transport (Homo sapiens, UniProt P13569). It is filed as cell-based. The conditions noted are these: enteroid cells incubated with test compound 18-24 hours, acute 10 μM forskolin and 300 nM Compound III; for Max. Activity: % of chloride transport with 3 μM Compound A, 3 μM Compound II and 300 nM acute Compound III triple combination control. In short, it runs like this: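 Membrane-potential fluorescence AUC over 15 min quantified CFTR chloride transport after acute forskolin (10 μM), IBMX (100 μM) and Compound III (300 nM) in chloride-free buffer. Human enteroid cells were pretreated with compound for 18–24 h; % Activity is relative to 3 μM Compound A + 3 μM Compound II + 300 nM Compound III.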

Read-outs that look alike come from different tables or passages of the source.

CFTR-mediated chloride transport, sequence (P13569 whole entry, looked up): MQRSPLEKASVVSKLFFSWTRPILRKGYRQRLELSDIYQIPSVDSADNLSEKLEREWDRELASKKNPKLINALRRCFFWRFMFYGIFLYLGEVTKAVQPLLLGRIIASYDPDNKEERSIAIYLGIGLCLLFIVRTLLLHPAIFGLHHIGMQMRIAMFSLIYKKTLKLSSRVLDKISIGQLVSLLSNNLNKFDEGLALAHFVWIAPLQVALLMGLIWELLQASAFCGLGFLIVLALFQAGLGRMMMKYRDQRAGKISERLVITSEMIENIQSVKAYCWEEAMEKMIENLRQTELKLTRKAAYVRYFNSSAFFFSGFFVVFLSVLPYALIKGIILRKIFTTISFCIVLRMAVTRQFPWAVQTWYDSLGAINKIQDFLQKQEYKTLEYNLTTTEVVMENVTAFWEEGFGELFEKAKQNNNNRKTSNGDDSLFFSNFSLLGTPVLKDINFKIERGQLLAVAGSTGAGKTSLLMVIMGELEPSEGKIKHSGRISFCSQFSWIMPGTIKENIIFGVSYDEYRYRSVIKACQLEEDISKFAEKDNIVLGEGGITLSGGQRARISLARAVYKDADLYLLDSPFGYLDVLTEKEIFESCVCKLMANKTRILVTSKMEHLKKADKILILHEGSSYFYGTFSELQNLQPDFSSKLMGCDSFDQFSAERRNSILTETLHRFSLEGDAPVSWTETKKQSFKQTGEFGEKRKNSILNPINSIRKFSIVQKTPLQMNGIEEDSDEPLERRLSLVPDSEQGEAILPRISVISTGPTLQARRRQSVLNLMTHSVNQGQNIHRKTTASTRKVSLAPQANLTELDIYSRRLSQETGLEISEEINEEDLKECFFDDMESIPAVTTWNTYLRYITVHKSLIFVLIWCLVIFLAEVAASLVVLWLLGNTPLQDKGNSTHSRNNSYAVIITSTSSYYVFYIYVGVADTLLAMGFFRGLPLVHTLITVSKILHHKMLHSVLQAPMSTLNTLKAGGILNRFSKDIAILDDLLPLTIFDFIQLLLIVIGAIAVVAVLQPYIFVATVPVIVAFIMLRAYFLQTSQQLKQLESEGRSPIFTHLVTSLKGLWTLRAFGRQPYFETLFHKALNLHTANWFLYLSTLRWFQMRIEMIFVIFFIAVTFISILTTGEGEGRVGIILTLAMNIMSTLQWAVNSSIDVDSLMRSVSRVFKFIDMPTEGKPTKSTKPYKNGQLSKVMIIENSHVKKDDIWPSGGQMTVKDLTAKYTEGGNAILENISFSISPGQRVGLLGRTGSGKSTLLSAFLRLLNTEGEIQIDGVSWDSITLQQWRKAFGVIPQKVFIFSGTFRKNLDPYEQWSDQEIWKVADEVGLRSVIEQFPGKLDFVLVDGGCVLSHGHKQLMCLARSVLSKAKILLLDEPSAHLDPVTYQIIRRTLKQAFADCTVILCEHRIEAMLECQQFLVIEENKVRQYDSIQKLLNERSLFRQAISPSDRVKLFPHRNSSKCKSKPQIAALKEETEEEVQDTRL

In data set [1] (from CC(C)(C)OC(=O)N1CC(OCCn2ccc(S(=O)(=O)NC(=O)c3ccc(-n4ccc(OCCC5(C(F)(F)F)CC5)n4)nc3Cl)n2)CC1(C)C, 13-membered ring, K2CO3/CsF/3A MS, 62.0 mM, 140.0 °C, 2 steps), `CC1(C)CC2CN1c1nc(-n3ccc(OCCC4(C(F)(F)F)CC4)n3)ccc1C(=O)NS(=O)(=O)c1ccnn1CCO2` (stereo not drawn) [Compound 152, 21,21-dimethyl-4-(3-{2-[1-(trifluoromethyl)cyclopropyl]ethoxy}-1H-pyrazol-1-yl)-18-oxa-10λ^6-thia-1,3,9,14,15-pentaazatetracyclo[17.2.1.02,7.011,15]docosa-2(7),3,5,11,13-pentaene-8,10,10-trione] yielded a ring closure, yield after HPLC of 34%. Besides, in data set [2], the EC50 is greater than 3000 nM and the “Max. Activity” value is reported as “+ (+ is <30%)”.
In turn, `CC1(C)CC2CN1c1nc(-n3ccc(OCCCC4(C(F)(F)F)CC4)n3)ccc1C(=O)NS(=O)(=O)c1cccc(n1)NCCO2` (stereo not drawn) [Compound 157] had a ring closure, yield after HPLC in data set [1] (from CC1(C)CC(OCCNc2cccc(S(=O)(=O)NC(=O)c3ccc(-n4ccc(OCCCC5(C(F)(F)F)CC5)n4)nc3Cl)n2)CN1, 15-membered ring, K2CO3/CsF/4A MS, 105.0 mM, 150.0 °C) of 34%. Moreover, in data set [2], the EC50 was less than 1000 nM and the “Max. Activity” value is on record as “+++ (+++ is >60%)”.
On to `CN1CCCC2CN(c3nc(-n4ccc(OCCC(C5CC5)C5CC5)n4)ccc3C(=O)NS(=O)(=O)c3cccc1n3)C(C)(C)C2` (stereo not drawn) [Compound 189, 8-[3-(3,3-Dicyclopropylpropoxy)-1H-pyrazol-1-yl]-12,12,18-trimethyl-2λ^6-thia-3,9,11,18,23-pentaazatetracyclo[17.3.1.111,14.05,10]tetracosa-1(22),5,7,9,19(23),20-hexaene-2,2,4-trione], for which the ring closure, yield after HPLC in data set [1] (from CN(CCCC1CNC(C)(C)C1)c1cccc(S(=O)(=O)NC(=O)c2ccc(-n3ccc(OCCC(C4CC4)C4CC4)n3)nc2Cl)n1, 15-membered ring, K2CO3/CsF/4A MS, 24.8 mM, 130.0 °C, 2 steps) came out at 60%. Moreover, in data set [2], the EC50 is less than 1000 nM and the “Max. Activity” value was “+++ (+++ is >60%)”.
In data set [1] (from CC1(C)CC(CCCNc2cccc(S(=O)(=O)NC(=O)c3ccc(-n4ccc(OCCCC5(C(F)(F)F)CC5)n4)nc3Cl)n2)CN1, 15-membered ring, K2CO3/CsF/4A MS, 102.3 mM, 150.0 °C, 2 steps), `CC1(C)C[C@H]2CCCNc3cccc(n3)S(=O)(=O)NC(=O)c3ccc(-n4ccc(OCCCC5(C(F)(F)F)CC5)n4)nc3N1C2` [Compound 190, (14R)-12,12-dimethyl-8-(3-{3-[1-(trifluoromethyl)cyclopropyl]propoxy}-1H-pyrazol-1-yl)-2λ^6-thia-3,9,11,18,23-pentaazatetracyclo[17.3.1.111,14.05,10]tetracosa-1(23),5,7,9,19,21-hexaene-2,2,4-trione] showed a ring closure, yield after HPLC of 49%. Also, in data set [2], the EC50 is less than 1000 nM and the “Max. Activity” value was “++ (++ is 30-60%)”.
For `Cc1cn2nc1S(=O)(=O)NC(=O)c1ccc(-n3ccc(OCCC4(C(F)(F)F)CC4)n3)nc1N1CC(CCC2)CC1(C)C` (stereo not drawn) [Compound 199, 12,20,20-trimethyl-4-(3-{2-[1-(trifluoromethyl)cyclopropyl]ethoxy}-1H-pyrazol-1-yl)-10λ^6-thia-1,3,9,14,22-pentaazatetracyclo[16.2.1.111,14.02,7]docosa-2(7),3,5,11(22),12-pentaene-8,10,10-trione], in data set [1] (from Cc1cn(CCCC2CNC(C)(C)C2)nc1S(=O)(=O)NC(=O)c1ccc(-n2ccc(OCCC3(C(F)(F)F)CC3)n2)nc1Cl, 14-membered ring, K2CO3/CsF/3A MS, 27.4 mM, 150.0 °C), the ring closure, yield after HPLC worked out at 12%. For the same molecule, in data set [2], the 50% effective concentration (EC50) was less than 1000 nM and the “Max. Activity” value was “++ (++ is 30-60%)”.
In data set [1] (from CC1(C)C[C@H](CCCNc2cccc(S(=O)(=O)NC(=O)c3ccc(-n4ccc(OCC(C)(C)C(F)(F)F)n4)nc3Cl)n2)CN1, 15-membered ring, K2CO3/CsF/3A MS, 57.7 mM, 150.0 °C), `CC1(C)C[C@@H]2CCCNc3cccc(n3)S(=O)(=O)NC(=O)c3ccc(-n4ccc(OCC(C)(C)C(F)(F)F)n4)nc3N1C2` [Compound 208, (14S)-12,12-dimethyl-8-[3-(3,3,3-trifluoro-2,2-dimethylpropoxy)-1H-pyrazol-1-yl]-2λ^6-thia-3,9,11,18,23-pentaazatetracyclo[17.3.1.111,14.05,10]tetracosa-1(22),5,7,9,19(23),20-hexaene-2,2,4-trione] registered a ring closure, yield after HPLC of 51%. In data set [2], the 50% effective concentration (EC50) is less than 1000 nM and the “Max. Activity” value is given as “+++ (+++ is >60%)”.
In data set [1] (from CC(C)(C)OC(=O)N1C[C@@H](CCCNc2cccc(S(=O)(=O)NC(=O)c3ccc(-n4ccc(OCCC(C)(C)C(F)(F)F)n4)nc3Cl)n2)CC1(C)C, 15-membered ring, K2CO3/CsF/3A MS, 21.2 mM, 130.0 °C, 2 steps), `CC1(C)C[C@@H]2CCCNc3cccc(n3)S(=O)(=O)NC(=O)c3ccc(-n4ccc(OCCC(C)(C)C(F)(F)F)n4)nc3N1C2` [Compound 212, (14S)-12,12-Dimethyl-8-[3-(4,4,4-trifluoro-3,3-dimethylbutoxy)-1H-pyrazol-1-yl]-2λ^6-thia-3,9,11,18,23-pentaazatetracyclo[17.3.1.111,14.05,10]tetracosa-1(22),5,7,9,19(23),20-hexaene-2,2,4-trione] registered a ring closure, yield after HPLC of 51%. In addition, in data set [2], the concentration giving a half-maximal response (EC50) was less than 1000 nM and the “Max. Activity” value is “+++ (+++ is >60%)”.
In turn, `CC(C)C(COc1ccn(-c2ccc3c(n2)N2CC(CCCNc4cccc(n4)S(=O)(=O)NC3=O)CC2(C)C)n1)C(C)C` (stereo not drawn) [Compound 220, 12,12-Dimethyl-8-{3-[3-methyl-2-(propan-2-yl)butoxy]-1H-pyrazol-1-yl}-2λ^6-thia-3,9,11,18,23-pentaazatetracyclo[17.3.1.111,14.05,10]tetracosa-1(23),5(10),6,8,19,21-hexaene-2,2,4-trione] returned a ring closure, yield after HPLC in data set [1] (from CC(C)C(COc1ccn(-c2ccc(C(=O)NS(=O)(=O)c3cccc(NCCCC4CCC(C)(C)N4C(=O)OC(C)(C)C)n3)c(Cl)n2)n1)C(C)C, 15-membered ring, K2CO3/CsF/3A MS, 83.8 mM, 140.0 °C, 2 steps) of 39%. In addition, in data set [2], the concentration for a half-maximal effect (EC50) is less than 1000 nM and the “Max. Activity” value is “+++ (+++ is >60%)”.
In data set [1] (from CC(C)(C)OC(=O)N1C[C@@H](CCCn2ccc(S(=O)(=O)NC(=O)c3ccc(-n4ccc(OCCC(C)(C)C(F)(F)F)n4)nc3Cl)n2)CC1(C)C, 14-membered ring, K2CO3/CsF/3A MS, 22.0 mM, 130.0 °C, 2 steps), `CC1(C)C[C@@H]2CCCn3ccc(n3)S(=O)(=O)NC(=O)c3ccc(-n4ccc(OCCC(C)(C)C(F)(F)F)n4)nc3N1C2` [Compound 221, (18S)-20,20-Dimethyl-4-[3-(4,4,4-trifluoro-3,3-dimethylbutoxy)-1H-pyrazol-1-yl]-10λ^6-thia-1,3,9,14,22-pentaazatetracyclo[16.2.1.111,14.02,7]docosa-2,4,6,11(22),12-pentaene-8,10,10-trione] gave a ring closure, yield after HPLC of 21%. For the same molecule, in data set [2], the half-maximal effective concentration (EC50) was less than 1000 nM and the “Max. Activity” value is on record as “+++ (+++ is >60%)”.
In the case of `CC(C)COc1cc(F)cc(-c2ccc3c(n2)N2C[C@@H](CCCNc4cccc(n4)S(=O)(=O)NC3=O)CC2(C)C)c1` [Compound 224, (14S)-8-[3-Fluoro-5-(2-methylpropoxy)phenyl]-12,12-dimethyl-2λ^6-thia-3,9,11,18,23-pentaazatetracyclo[17.3.1.111,14.05,10]tetracosa-1(22),5,7,9,19(23),20-hexaene-2,2,4-trione], the ring closure, yield after HPLC in data set [1] (from CC(C)COc1cc(F)cc(-c2ccc(C(=O)NS(=O)(=O)c3cccc(NCCC[C@@H]4CN(C(=O)OC(C)(C)C)C(C)(C)C4)n3)c(Cl)n2)c1, 15-membered ring, K2CO3/CsF/3A MS, 30.6 mM, 150.0 °C, 2 steps) turned out to be 14%. Further, in data set [2], the EC50 is less than 1000 nM and the “Max. Activity” value was “+++ (+++ is >60%)”.
Take `CC(C)COc1cc(F)cc(-c2ccc3c(n2)N2C[C@@H](CCCn4ccc(n4)S(=O)(=O)NC3=O)CC2(C)C)c1` [Compound 226]: the ring closure, yield after HPLC in data set [1] (from CC(C)COc1cc(F)cc(-c2ccc(C(=O)NS(=O)(=O)c3ccn(CCC[C@@H]4CN(C(=O)OC(C)(C)C)C(C)(C)C4)n3)c(Cl)n2)c1, 14-membered ring, K2CO3/CsF/3A MS, 15.0 mM, 150.0 °C, 2 steps) came to 34%. For the same molecule, in data set [2], the EC50 was less than 1000 nM and the “Max. Activity” value was “++ (++ is 30-60%)”.
In data set [1] (from CC(C)C(COc1ccn(-c2ccc(C(=O)NS(=O)(=O)c3cccc(NCCC[C@@H]4CNC(C)(C)C4)n3)c(Cl)n2)n1)C(C)C, 15-membered ring, K2CO3/CsF/4A MS, 73.3 mM, 150.0 °C), `CC(C)C(COc1ccn(-c2ccc3c(n2)N2C[C@@H](CCCNc4cccc(n4)S(=O)(=O)NC3=O)CC2(C)C)n1)C(C)C` [Compound 227, (14S)-12,12-Dimethyl-8-{3-[3-methyl-2-(propan-2-yl)butoxy]-1H-pyrazol-1-yl}-2λ^6-thia-3,9,11,18,23-pentaazatetracyclo[17.3.1.111,14.05,10]tetracosa-1(23),5(10),6,8,19,21-hexaene-2,2,4-trione] yielded a ring closure, yield after HPLC of 20%. For the same molecule, in data set [2], the EC50 is less than 1000 nM and the “Max. Activity” value is on record as “+++ (+++ is >60%)”.
Molecule `CC1(C)C[C@@H]2CCCNc3cccc(n3)S(=O)(=O)NC(=O)c3ccc(-n4ccc(OCCC(C5CCC5)C5CCC5)n4)nc3N1C2` [Compound 231, (14S)-8-[3-(3,3-dicyclobutylpropoxy)-1H-pyrazol-1-yl]-12,12-dimethyl-2λ^6-thia-3,9,11,18,23-pentaazatetracyclo[17.3.1.111,14.05,10]tetracosa-1(22),5,7,9,19(23),20-hexaene-2,2,4-trione] came in with a ring closure, yield after HPLC in data set [1] (from CC1(C)C[C@H](CCCNc2cccc(S(=O)(=O)NC(=O)c3ccc(-n4ccc(OCCC(C5CCC5)C5CCC5)n4)nc3Cl)n2)CN1, 15-membered ring, K2CO3/CsF/3A MS, 21.1 mM, 165.0 °C, 16.0 h) of 32%. For the same molecule, in data set [2], the EC50 is less than 1000 nM and the “Max. Activity” value is “+++ (+++ is >60%)”.
